Key:
[1] = test system: VEGF induced increases in intracellular calcium levels in HUVEC (human umbilical vein endothelial cells); experiment: VEGF Stimulated Ca++ Signal in Vitro (FLIPR, cell based assay); conditions: for IC50: VEGF stimulation 5 ng/mL, 30 min pre-incubation, 0.01 to 10.0 uM
Description: VEGF Stimulated Ca^++ Signal in Vitro
Automated FLIPR (Fluorometric Imaging Plate Reader) technology was used to screen for inhibitors of VEGF induced increases in intracellular calcium levels in fluorescent dye loaded endothelial cells. HUVEC (human umbilical vein endothelial cells) (Clonetics) were seeded in 96-well fibronectin coated black-walled plates overnight @ 37° C./5% CO2. Cells were loaded with calcium indicator Fluo-4 for 45 minutes at 37° C. Cells were washed 4 times (Original Cell Wash, Labsystems) to remove extracellular dye. For screening, cells were pre-incubated with test agents for 30 minutes at a single concentration (10 uM) or at concentrations ranging from 0.01 to 10.0 uM, followed by VEGF stimulation (5 ng/mL). Changes in fluorescence at 516 nm were measured simultaneously in all 96 wells using a cooled CCD camera. Data were generated by determining max-min fluorescence levels for unstimulated, stimulated, and drug treated samples. IC50 values for test compounds were calculated from % inhibition of VEGF stimulated responses in the absence of inhibitor.

[2] = molecular target: T1, cytoplasmic domain of the human VEGF receptor (VEGFR-2) (Homo sapiens, UniProt P35968); experiment: KDR kinase assay (ELISA, poly-Glu-Tyr substrate, with BSA); type: biochemical; conditions: His-VEGFR-2, 3.6 μM ATP, plates incubated with 1% BSA
T1 construct: The cytoplasmic domain of the human VEGF receptor (VEGFR-2) was expressed; His (Histidine tag); made in house; host or cells: insect cells (engineered baculovirus)
Description: The cytoplasmic domain of the human VEGF receptor (VEGFR-2) was expressed as a Histidine-tagged fusion protein following infection of insect cells using an engineered baculovirus. His-VEGFR-2 was purified to homogeneity, as determined by SDS-PAGE, using nickel resin chromatography. Kinase assays were performed in 96 well microtiter plates that were coated overnight with 30 μg of poly-Glu-Tyr (4:1) in 10 mM Phosphate Buffered Saline (PBS), pH 7.2–7.4. The plates were incubated with 1% BSA and then washed four times with PBS prior to starting the reaction. Reactions were carried out in 120 μL reaction volumes containing 3.6 μM ATP in kinase buffer (50 mM Hepes pH 7.4, 20 mM MgCl2, 0.1 mM MnCl2 and 0.2 mM Na3VO4). Test compounds were reconstituted in 100% DMSO and added to the reaction to give a final DMSO concentration of 5%. Reactions were initiated by the addition 0.5 ng of purified protein. Following a ten minute incubation at 25° C., the reactions were washed four times with PBS containing 0.05% Tween-20. 100 μl of a monoclonal anti-phosphotyrosine antibody-peroxidase conjugate was diluted 1:10000 in PBS-Tween-20 and added to the wells for 30 minutes. Following four washes with PBS-Tween-20, 100 μl of 0-Phenylenediamine Dihydrochloride in Phosphate-citrate buffer, containing urea hydrogen peroxide, was added to the wells for 7 minutes as a colorimetric substrate for the peroxidase. The reaction was terminated by the addition of 100 μl of 2.5N H2SO4 to each well and read using a microplate ELISA reader set at 492 nm. IC50 values for compound inhibition were calculated directly from graphs of optical density (arbitrary units) versus compound concentration following subtraction of blank values.

[3] = Homo sapiens, single concentration 10 uM, VEGF 5 ng/mL

T1 sequence (P35968 786-1356 limits assumed): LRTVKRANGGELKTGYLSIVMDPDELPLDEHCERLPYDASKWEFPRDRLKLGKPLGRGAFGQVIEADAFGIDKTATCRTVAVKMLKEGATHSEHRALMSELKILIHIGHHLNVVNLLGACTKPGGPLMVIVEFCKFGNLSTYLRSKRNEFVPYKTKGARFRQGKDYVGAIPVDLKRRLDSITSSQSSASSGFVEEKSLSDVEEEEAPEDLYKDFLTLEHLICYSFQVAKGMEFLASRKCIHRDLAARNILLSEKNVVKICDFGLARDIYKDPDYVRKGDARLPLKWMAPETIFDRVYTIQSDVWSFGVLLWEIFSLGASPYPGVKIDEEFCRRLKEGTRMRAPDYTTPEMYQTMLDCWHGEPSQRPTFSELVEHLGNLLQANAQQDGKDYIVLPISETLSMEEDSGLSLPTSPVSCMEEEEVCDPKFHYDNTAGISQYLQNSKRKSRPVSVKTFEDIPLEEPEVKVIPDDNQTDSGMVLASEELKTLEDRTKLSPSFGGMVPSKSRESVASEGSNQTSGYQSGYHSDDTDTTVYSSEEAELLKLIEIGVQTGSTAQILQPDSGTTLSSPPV

Compound	IC50 ([1]; Homo sapiens) [µM]	inhibition at 10 µM [1, 3] [%]	IC50 [2] [µM]	IC50 [1] [µM]	VEGF (% inhibition @ 10 uM) (Cell based assay, Ca++) ([1]; single concentration 10 uM, VEGF 5 ng/mL) [%]
O=C1Nc2ccccc2C1=C1OCc2ccccc21 [Example 1, 3-(3H-isobenzofuran-1-ylidene)-1,3-dihydro-indol-2-one]	0.11	99			
O=C1Nc2ccc(Cl)cc2C1=C1OCc2ccccc21 [Example 2, 5-Chloro-3-(3H-isobenzofuran-1-ylidene)-1,3-dihydro-indol-2-one]	0.05	98			
Cc1cccc2c1C(=C1OCc3ccccc31)C(=O)N2 [Example 3, 3-(3H-Isobenzofuran-1-ylidene)-4-methyl-1,3-dihydro-indol-2-one]	0.685	95			
O=C1Nc2ccc(F)cc2C1=C1OCc2ccccc21 [Example 4, 5-Fluoro-3-(3H-isobenzofuran-1-ylidene)-1,3-dihydro-indol-2-one]	0.055	99	0.073		
Nc1ccc2c(c1)C(=C1C(=O)Nc3ccccc31)OC2 [Example 5, 3-(6-Amino-3H-isobenzofuran-1-ylidene)-1,3-dihydro-indol-2-one]	0.04	98	0.13		
CCCC(=O)Nc1ccc2c(c1)C(=C1C(=O)Nc3ccccc31)OC2 [Example 7, N-[3-(2-Oxo-1,2-dihydro-indol-3-ylidene)-1,3-dihydro-isobenzofuran-5-yl]-butyramide]		5	9.78		
O=C1Nc2ccccc2C1=C1OCc2ccc(NC(=O)C3CC3)cc21 [Example 8, Cyclopropanecarboxylic acid [3-(2-oxo-1,2-dihydro-indol-3-ylidene)-1,3-dihydro-isobenzofuran-5-yl]-amide]		48	0.85		
O=C(CCCCl)Nc1ccc2c(c1)C(=C1C(=O)Nc3ccccc31)OC2 [Example 9, 4-Chloro-N-[3-(2-oxo-1,2-dihydro-indol-3-ylidene)-1,3-dihydro-isobenzofuran-5-yl]-butyramide]		35	3.25		
COc1ccc(CC(=O)Nc2ccc3c(c2)C(=C2C(=O)Nc4ccccc42)OC3)cc1 [Example 10, 2-(4-Methoxy-phenyl)-N-[3-(2-oxo-1,2-dihydro-indol-3-ylidene)-1,3-dihydro-isobenzofuran-5-yl]-acetamide]		50	8.02		
CCNc1ccc2c(c1)C(=C1C(=O)Nc3ccccc31)OC2 [Example 11, 3-(6-Ethylamino-3H-isobenzofuran-1-ylidene)-1,3-dihydro-indol-2-one]	0.78	99	0.66		
Nc1ccc2c(c1)COC2=C1C(=O)Nc2ccccc21 [Example 12, 3-(5-Amino-3H-isobenzofuran-1-ylidene)-1,3-dihydro-indol-2-one]	0.04	98	0.065		
Nc1ccc(CO)c(C(=O)Nc2ccc3c(c2)C(=C2C(=O)Nc4ccccc42)OC3)c1 [Example 13, 5-Amino-2-hydroxymethyl-N-[3-(2-oxo-1,2-dihydro-indol-3-ylidene)-1,3-dihydro-isobenzofuran-5-yl]-benzamide]	2.1	99	1.34		
O=C1Nc2ccccc2C1=C1OCc2ccc(NCCCO)cc21 [Example 14, 3-[6-(3-Hydroxy-propylamino)-3H-isobenzofuran-1-ylidene]-1,3-dihydro-indol-2-one]	0.85	100	0.64		
CCNc1ccc2c(c1)COC2=C1C(=O)Nc2ccccc21 [Example 15, 3-(5-Ethylamino-3H-isobenzofuran-1-ylidene)-1,3-dihydro-indol-2-one]	0.051	95	0.037		
Nc1ccc2c(c1)C(=C1C(=O)Nc3ccc(Cl)cc31)OC2 [Example 16, 3-(6-Amino-3H-isobenzofuran-1-ylidene)-5-chloro-1,3-dihydro-indol-2-one]	0.06	99	0.015		
Nc1ccc2c(c1)CO/C2=C1/C(=O)Nc2ccc(Cl)cc21 [Example 17, 3-(5-Amino-3H-isobenzofuran-1-ylidene)-5-chloro-1,3-dihydro-indol-2-one]	0.055	98	0.139		
CC(=O)Nc1ccc2c(c1)COC2=C1C(=O)Nc2ccccc21 [Example 18, N-[1-(2-Oxo-1,2-dihydro-indol-3-ylidene)-1,3-dihydro-isobenzofuran-5-yl]-acetamide]	0.04	97	0.063		
CC(=O)Nc1ccc2c(c1)COC2=C1C(=O)Nc2ccc(Cl)cc21 [Example 19, N-[1-(5-Chloro-2-oxo-1,2-dihydro-indol-3-ylidene)-1,3-dihydro-isobenzofuran-5-yl]-acetamide]	0.05	99	0.066		
CC(=O)Nc1ccc2c(c1)C(=C1C(=O)Nc3ccc(Cl)cc31)OC2 [Example 20, N-[3-(5-Chloro-2-oxo-1,2-dihydro-indol-3-ylidene)-1,3-dihydro-isobenzofuran-5-yl]-acetamide]	0.097	99	0.39		
CN(C)c1ccc2c(c1)C(=C1C(=O)Nc3ccccc31)OC2 [Example 21, 3-(6-Dimethylamino-3H-isobenzofuran-1-ylidene)-1,3-dihydro-indol-2-one]	1.31	94	1.69		
CNc1ccc2c(c1)C(=C1C(=O)Nc3ccccc31)OC2 [Example 22, 3-(6-Methylamino-3H-isobenzofuran-1-ylidene)-1,3-dihydro-indol-2-one]	0.29	96	0.17		
CN(C)c1ccc2c(c1)COC2=C1C(=O)Nc2ccccc21 [Example 23, 3-(5-Dimethylamino-3H-isobenzofuran-1-ylidene)-1,3-dihydro-indol-2-one]	0.096	96	0.043		
CNc1ccc2c(c1)COC2=C1C(=O)Nc2ccccc21 [Example 24, 3-(5-Methylamino-3H-isobenzofuran-1-ylidene)-1,3-dihydro-indol-2-one]	0.073	98	0.061		
[3-(2-Oxo-1,2-dihydro-indol-3-ylidene)-1,3-dihydro-isobenzofuran-5-yl]-acetamide [Example 6]			1.11	1.23	97

From patent publication US7060844B2, “(3Z)-3-(2,3-dihydro-1H-inden-1-ylidene)-1,3-dihydro-2H-indol-2-ones as kinase inhibitors” (Allergan, Inc., priority 2002, dated 2006)
